This note sets out measurements from patent US20220304929A1, “LIPIDS FOR DELIVERY OF CHARGED MATERIAL, FORMULATIONS THEREOF AND METHOD FOR MAKING SAME” (INTEGRATED NANOTHERAPEUTICS INC., priority 2019, published 2022).

In one data set the test system is factor VII (FVII). The experiment in a line: LNP-siRNA activity in the mouse Factor VII model. It counts as in vivo. As to conditions: C57Bl/6 mice, i.v. tail vein, 0.03-0.3 mg/kg siRNA, 24 hours post-injection. The protocol: Lipid nanoparticle (LNP) formulations containing cationic lipids of the disclosure and FVII siRNA were injected via a tail vein in C57Bl/6 wild-type mice and the levels of FVII in plasma was measured post injection. The mice were injected with LNP-siRNA at doses of 0.03 (left bar), 0.1 (middle bar) and 0.3 mg/kg (right bar). The cationic lipids incorporated in the LNPs were INT-A001, INT-A002, INT-A003 and INT-A007.
LNPs prepared as described in Example 2 containing siRNA against factor VII (FVII) were diluted with PBS such that injection volumes were maintained at 10 mL/kg body weight and administered (based on siRNA concentration) intravenously via tail vein in 6 to 8 weeks old female C57Bl/6 mice (Charles River Laboratories, Wilmington, Mass.). At 24 hours post-injection, animals were euthanized and blood was collected via intracardiac sampling. Blood samples were allowed to coagulate at 4° C. overnight and the serum was separated followed by centrifugation for 15 min at 12,000 rpm. The serum FVII levels were determined using the Biophen VII chromogenic assay (Aniara, Mason, Ohio) according to the protocol of the manufacturer.

Data set [1] is described as follows: RNA or antisense oligonucleotide encapsulation efficiency (Quant-iT Ribogreen RNA / Oligreen ssDNA assays). It counts as physicochemical. The protocol: The RNA or antisense oligonucleotide encapsulation efficiency was determined using the Quant-iT Ribogreen RNA or Oligreen ssDNA Assays, respectively (Life Technologies, Burlington, ON). Briefly, LNP was incubated at 37° C. for 10 min in the presence or absence of 1% Triton X-100 (Sigma-Aldrich, St. Louis, Mo.) followed by the addition of the Ribogreen or Oligreen reagent. The fluorescence intensity (Ex/Em: 480/520 nm) was determined and samples treated with Triton X-100 represent total nucleic acid while untreated samples represent unencapsulated nucleic acid.
To prepare the LNPs, ionizable lipid, DSPC, cholesterol and PEG-DMPE were dissolved in ethanol. The siRNA was dissolved in pH 4.0-6.2 buffer composed of 10-50 mM acetate, succinate or citrate. In select cases, 10-50 mM 4-(2-Hydroxyethyl)piperazine-1-ethanesulfonic acid (HEPES) or 2-(N-Morpholino)ethanesulfonic acid (MES) buffer was used. LNP were prepared by rapidly mixing the lipid components in ethanol (in molar ratio of 50/10/38.5/1.5 of […]) with nucleic acids in aqueous buffer at a volumetric flow rate ratio of 1:3 (ethanol to aqueous, combined flow rate >12 mL/min) at room temperature. Typically, siRNA/lipids ratios were targeted for 0.056 wt/μmol. The product was then dialyzed against 1× phosphate-buffered saline (PBS) at pH 7.4 for 24 hours to remove residual ethanol and to raise the pH. PBS was refreshed after 4 hours.

In data set [2] the test system is luciferase expressing human prostate cells (22Rv1). The experiment in a line: LNP-siRNA luciferase gene silencing in cultured 22Rv1 cells. Format: cell-based. The settings on record: 1 ug/mL siRNA, 16-24 hr. On the procedure:
Cells were treated with lipid nanoparticle (LNP) formulations containing ionizable lipids of the disclosure and Luciferase siRNA at concentrations of 1.0 (left bar), 0.3 (middle bar) and 0.1 μg/mL (right bar). The level of luminescence was measured post treatment. The ionizable lipids incorporated in the LNPs were 2-(dimethylamino)ethyl (±)-syn-9,10-dilinoleoxystearate (INT-A001), 3-(diethylamino)propyl (±)-syn-9,10-dilinoleoxystearate (INT-A002), 3-(dimethylamino)propyl (±)-syn-9,10-dilinoleoxystearate (INT-A003), 2-(diethylamino)ethyl (±)-syn-9,10-dilinoleoxystearate (INT-A004), 3-(dimethylamino)propyl (12R)-linoleoxyoleate (INT-A005), 3-(diethylamino)propyl (syn-9,10,12R)-trilinoleoxystearate (INT-A006), and 3-(diethylamino)propyl (±)-syn-9,10-bis(2-hexyldecanoyloxy)stearate (INT-A007).
The level of luminescence was measured 16-24 hr post treatment and the relative luminescence is ranked from highest (left) to lowest (right).
The activity of the ionizable lipids in vitro was evaluated in luciferase expressing human prostate cells (22Rv1). LNPs containing siRNA against firefly luciferase were prepared as described in Example 2. […] Equal amounts of Steady-Glo reagent (Promega) was added to each sample and the level of luminescence was determined using a Synergy LX plate reader (BioTek). […]

Data set [3] in a line: Peptide incorporation into LNP (Peptide:Lipid ratio; BCA or CBQCA protein quantification). It counts as physicochemical. On the procedure:
(§1) Lipid concentrations were determined by measuring total cholesterol using the Cholesterol E enzymatic assay kit from Wako Chemicals USA (Richmond, Va.).
Quantification of protein/peptide was performed with the use of either the BCA Protein Assay (Pierce) or the CBQCA Protein Quantitation Kit (Invitrogen) according to the manufacturer's instructions.

The nature of data set [4]: LNP particle size and polydispersity by dynamic light scattering. It counts as physicochemical.
Data set [5] in a line: HA incorporation into LNP (HA:Lipid ratio). It counts as physicochemical. The settings on record: LNP containing ionizable lipid and HA (8-15 kDa). On the procedure:
as §1
Hyaluronic acid was used as an example of anionic cargos. LNPs were prepared as described in Example 2 containing HA with a molecular weight of 8-15 kDa.

The subject of another data set is HepG2 cells. Description: LNP luciferase mRNA expression in cultured HepG2 cells. It counts as cell-based. The settings on record: 0.125-1 μg/mL luciferase mRNA, 16-24 hr. On the procedure: Cells were treated with LNP formulations containing ionizable lipids of the disclosure and luciferase mRNA at concentrations of 0.125-1 μg/mL. The level of luminescence was measured post treatment. From left-to-right, the ionizable lipids incorporated in the LNPs were INT-A001 (white bar), INT-A002 (dotted bar), INT-A003 (black bar) and INT-A004 (gray bar).
The activity of the ionizable lipids in vitro was evaluated in cultured HepG2 cells. LNPs containing Firefly Luciferase mRNA were prepared as described in Example 2. LNPs were diluted to 0.125-1 μg/mL with DMEM media containing 10% FBS and incubated with HepG2 cells for 16-24 hr. Cells were then lysed with Glo-Lysis Buffer (Promega). Equal amounts of Steady-Glo reagent (Promega) was added to each sample and the level of luminescence was determined using a Synergy LX plate reader (BioTek).

Data set [6] can be described thus: Apparent pKa of LNP systems (TNS fluorescence assay). It counts as physicochemical. As to conditions: LNP containing ionizable lipid and FVII siRNA. On the procedure: Apparent acid dissociation constants (pKa) of LNP systems were determined according to a procedure described in the literature (Jayaraman, M., et al., Maximizing the potency of siRNA lipid nanoparticles for hepatic gene silencing in vivo. Angewandte Chemie, 2012. 51(34): p. 8529-33). Briefly, 2-(p-toluidino)-6-napthalene sulfonic acid (TNS, Sigma-Aldrich, St. Louis, Mo.) and LNP were diluted in buffer (10 mM HEPES, 10 mM MES and 10 mM ammonium acetate) with pH ranges from 2.5 to 11. Final concentration of TNS or total lipid was 6 μM. Samples were then mixed and fluorescence intensity was measured (Ex/Em: 321/445 nm) using a Perkin Elmer LS55. A sigmoidal best fit analysis was applied and the pKa was measured as the pH at half-maximal fluorescence intensity.

Data set [7] relates to Firefly Luciferase mRNA expression in liver. The experiment in a line: LNP luciferase mRNA expression in vivo in the liver of mice. As to conditions: C57Bl/6 mice, 1 mg/kg mRNA i.v., liver at 4 hours post-injection. Further details: species or system mouse. The protocol: Lipid nanoparticle (LNP) formulations containing cationic lipids of the disclosure and Luciferase mRNA were injected via a tail vein in C57Bl/6 wild-type mice at mRNA dose of 1 mg/kg and the luminescence in the liver was measured post injection. From left-to-right, the cationic lipids incorporated in the LNP-mRNA were INT-A001, INT-A002, INT-A003 and INT-A004. Untreated animals were injected with phosphate buffered saline (PBS).
To assess in vivo activity, LNPs containing Firefly Luciferase mRNA were prepared as described in Example 2. LNPs were diluted with PBS and administered at 1 mg/kg intravenously via tail vein in 6 to 8 weeks old female C57Bl/6 mice (Charles River Laboratories, Wilmington, Mass.). At 4 hours post-injection, animals were euthanized and the livers were collected. Approximately 100 mg of liver was homogenized in 0.5 mL Glo Lysis Buffer (Promega). The homogenate was further diluted 1:4 with the lysis buffer and then 50 μL of diluted homogenate was added to 50 μL Steady-Glo reagent (Promega). The level of luminescence was determined using a Synergy LX plate reader (BioTek).

Setting [8] is: LNP containing ionizable lipid and antisense oligonucleotide.
[9] abbreviates: LNP containing ionizable lipid and siRNA.
[10] abbreviates: LNP containing ionizable lipid and a 2.0 kDa acidic peptide (net charge -3).
Where [11] appears, read: LNP containing ionizable lipid and a 4.2 kDa acidic peptide (net charge -3).
Setting [12] is: LNP containing ionizable lipid and HA (8-15 kDa).
[13] abbreviates: LNP containing ionizable lipid and Luciferase mRNA.

`CCCCCCCCC(CCCCCC)C(=O)O[C@@H](CCCCCCCC)[C@@H](CCCCCCCC(=O)OCCCN(CC)CC)OC(=O)C(CCCCCC)CCCCCCCC` (mixture of isomers) [INT-A007, 3-(Diethylamino)propyl (±)-syn-9,10-bis(2-hexyldecanoyloxy)stearate]: the “Activity in mediating FVII gene-silencing (residual serum FVII levels)” value with factor VII (FVII) was “active in mediating gene-silencing”. Moreover, the “Encapsulation Efficiency” value in data set [1] (setting [8]) and in data set [1] (setting [9]) was 84% throughout. In addition, the “Relative activity in silencing of the firefly luciferase gene (luminescence)” value in data set [2] is “most active”. For the same compound, the “Peptide:Lipid” value was 0.075 wt/wt in data set [3] (setting [10]) and 0.162 wt/wt in [3] (setting [11]). The “Particle Diameter” value was 58 nm in data set [4] (setting [12]); 79 nm in data set [4] (setting [10]); 52 nm in [4] (setting [11]); 55 nm in data set [4] (setting [8]); 59 nm in data set [4] (setting [9]). Moreover, the “Polydispersity index (PDI)” value in data set [4] (setting [12]) is on record as 0.065; in data set [4] (setting [10]), 0.019; in [4] (setting [11]) it was 0.049; in data set [4] (setting [8]), 0.070; in data set [4] (setting [9]), 0.021. Besides, the “HA:Lipid” value in data set [5] came out at 0.096 wt/wt.

As for `CCCCC/C=C\C/C=C\CCCCCCCC(=O)O[C@@H](CCCCCCCC)[C@@H](CCCCCCCC(=O)OCCN(C)C)OC(=O)CCCCCCC/C=C\C/C=C\CCCCC` (racemic) [INT-A001, 2-(Dimethylamino)ethyl (±)-syn-9,10-dilinoleoxystearate], in the data set on factor VII (FVII), the “Activity in mediating FVII gene-silencing (residual serum FVII levels)” value is listed as “active in mediating gene-silencing”. The “Encapsulation Efficiency” value in data set [1] (setting [13]) was determined as 96%; in data set [1] (setting [8]), 84%; in data set [1] (setting [9]), 89%. The “Peptide:Lipid” value in [3] (setting [11]) is 0.161 wt/wt. Moreover, the “Particle Diameter” value is given as 43 nm in data set [4] (setting [13]), 48 nm in data set [4] (setting [11]), 44 nm in data set [4] (setting [8]) and 50 nm in data set [4] (setting [9]). The “Polydispersity index (PDI)” value in data set [4] (setting [13]) was 0.064; in [4] (setting [11]), 0.021; in data set [4] (setting [8]), 0.103; in data set [4] (setting [9]), 0.059. The “Activity in delivering mRNA and inducing its expression in vitro (luminescence)” value in the data set with HepG2 cells is “can effectively deliver mRNA”. The “Apparent pKa” value in data set [6] was found to be 6.3. Besides, in data set [7], the “Activity in delivering mRNA and inducing mRNA expression in vivo (liver luminescence)” value is recorded as “can effectively deliver mRNA”.
